The text below walks through data of patent US8883779B2, “Oxazine derivatives and a pharmaceutical composition for inhibiting BACE1 containing them” (Shinogi & Co., Ltd., priority 2011, dated 2014).

pIC50: −log10 of the molar value.

Series [1] addresses T1, CYP3A4 enzyme (enzyme expressed in Escherichia coli) (Homo sapiens, UniProt P08684).
T1 construct: host or cells: Escherichia coli
The experiment in a line: CYP3A4 fluorescent MBI test. As to conditions: 7-BFC substrate, pre-reaction time 0 or 30 minutes. The class given is in vitro ADME. The protocol:
The CYP3A4 fluorescent MBI test is a test of investigating enhancement of CYP3A4 inhibition of a compound by a metabolism reaction. 7-benzyloxytrifluoromethylcoumarin (7-BFC) is debenzylated by the CYP3A4 enzyme (enzyme expressed in Escherichia coli) and 7-hydroxytrifluoromethylcoumarin (7-HFC) is produced as a fluorescing metabolite. The test is performed using 7-HFC production reaction as an index.
The reaction conditions are as follows: substrate, 5.6 μmol/L 7-BFC; pre-reaction time, 0 or 30 minutes; substrate reaction time, 15 minutes; reaction temperature, 25° C. […]
An enzyme in a K-Pi buffer (pH 7.4) and a compound of the present invention solution as a pre-reaction solution were added to a 96-well plate at the composition of the pre-reaction. […] Fluorescent values of 7-HFC as a metabolite were measured in each index reaction plate with a fluorescent plate reader. […]
The sample adding DMSO to a reaction system instead of compound of the present invention solution was adopted as a control (100%) because DMSO is used as a solvent to dissolve a compound of the present invention. Remaining activity (%) was calculated at each concentration of the compound of the present invention added as the solution, and IC50 was calculated by reverse-presumption by a logistic model using a concentration and an inhibition rate. […]

The target of series [2] is T2, Recombinant human BACE1 (Homo sapiens, UniProt P56817).
T2 construct: purchased R&D Systems
The experiment in a line: Assay of BACE1 inhibiting activity. The note with it: Recombinant human BACE1 7.4 nmol/L, substrate peptide 18 nmol/L, pH 5.0, 30° C., 3.5 hours; read-out: 50% inhibitory concentration against the enzymatic activity (IC50). It is filed as biochemical. The protocol:
48.5 μL of substrate peptide solution (Biotin-XSEVNLDAEFRHDSGC-Eu: X=ε-amino-n-capronic acid, Eu=Europium cryptate) was added to each well of 96-hole half-area plate (a black plate: Costar), and after addition of 0.5 μl of the compound of the present invention (DMSO solution) and 1 μl of Recombinant human BACE1(R&D Systems), the reaction mixture was incubated at 30° C. for 3.5 hours. The substrate peptide was synthesized by reacting Cryptate TBPCOOH mono SMP (CIS bio international) with Biotin-XSEVNLDAEFRHDSGC (Peptide Institute, Inc.). The final concentrations of the substrate peptide and Recombinant human BACE1 were adjusted to 18 nmol/L and 7.4 nmol/L, respectively, and the reaction was performed in sodium acetate buffer (50 mmol/L sodium acetate, pH 5.0, 0.008% Triton X-100).
After the incubation for reaction, 50 μl of 8.0 μg/ml Streptavidin-XL665 (CIS bio international) dissolved in phosphate buffer (150 mmol/L K2 HPO4—KH2 PO4, pH 7.0, 0.008% Triton X-100, 0.8 mol/L KF) was added to each well and left stand at 30° C. for 45 minutes. After then, fluorescence intensity was measured (excitation wavelength: 320 nm, measuring wavelength: 620 nm and 665 nm) using Wallac 1420 multilabel counter (Perkin Elmer life sciences).

Series [3] is described as follows: Solubility test (turbidity, JP-I / JP-II medium). It is filed as physicochemical. The note with it: pH 6.8, aqueous buffer, kinetic from dmso stock, 2% DMSO solution, turbidity after 4 hours, read-out: solubility assessed by 3 stages.
A short description of series [4]: Metabolism stability test. As to conditions: human liver microsomes 0.5 mg protein/mL, 1 mmol/L NADPH, 37° C., 30 minutes. The class given is in vitro ADME. Here is the method: Using a commercially available pooled human liver microsomes, a compound of the present invention is reacted for a constant time, a remaining rate is calculated by comparing a reacted sample and an unreacted sample, thereby, a degree of metabolism in liver was assessed.
A reaction was performed (oxidative reaction) at 37° C. for 0 minute or 30 minutes in the presence of 1 mmol/L NADPH in 0.2 mL of a buffer (50 mmol/L Tris-HCl pH 7.4, 150 mmol/L potassium chloride, 10 mmol/L magnesium chloride) containing 0.5 mg protein/mL of human liver microsomes. After the reaction, 50 μL of the reaction solution was added to 100 μL of a methanol/acetonitrile=1/1 (v/v), mixed and centrifuged at 3000 rpm for 15 minutes. The compound of the present invention in the supernatant was quantified by LC/MS/MS, and a remaining amount of the compound of the present invention after the reaction was calculated, letting a compound amount at 0 minute reaction time to be 100%.
(In general: Liver microsomes are a subcellular fraction often used to study metabolism.)

Series [5] deals with T3, CYP1A2 (Homo sapiens, UniProt P05177).
T3 construct: The commercially available pooled human liver microsomes were used; from tissue; host or cells: pooled human liver microsomes
T3 sequence (P05177 1-516): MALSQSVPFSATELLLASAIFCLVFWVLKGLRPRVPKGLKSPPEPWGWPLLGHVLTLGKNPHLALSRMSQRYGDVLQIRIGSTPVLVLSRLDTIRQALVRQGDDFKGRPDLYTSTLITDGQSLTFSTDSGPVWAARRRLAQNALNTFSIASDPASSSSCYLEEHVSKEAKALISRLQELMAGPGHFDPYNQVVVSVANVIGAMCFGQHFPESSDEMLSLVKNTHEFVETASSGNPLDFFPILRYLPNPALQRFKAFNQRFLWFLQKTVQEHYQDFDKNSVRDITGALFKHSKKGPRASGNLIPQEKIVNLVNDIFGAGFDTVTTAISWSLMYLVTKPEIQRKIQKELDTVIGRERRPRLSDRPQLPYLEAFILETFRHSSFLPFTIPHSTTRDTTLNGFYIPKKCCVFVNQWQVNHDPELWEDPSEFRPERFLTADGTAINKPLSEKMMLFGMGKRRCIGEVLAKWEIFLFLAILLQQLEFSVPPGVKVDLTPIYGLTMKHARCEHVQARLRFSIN
The experiment in a line: CYP inhibition test, 7-ethoxyresorufin O-deethylation. It is filed as in vitro ADME. As to conditions: pooled human liver microsomes, 0.5 μmol/L ethoxyresorufin. From the text:
(§1) The test is to assess the inhibitory effect of a compound of the present invention towards typical substrate metabolism reactions on CYP enzymes in human liver microsomes. The commercially available pooled human liver microsomes were used.
(§2) The marker reactions on human main five CYP enzymes (CYP1A2, 2C9, 2C19, 2D6, and 3A4) were used as follows; 7-ethoxyresorufin O-deethylation (CYP1A2), tolbutamide methyl-hydroxylation (CYP2C9), mephenyloin 4′-hydroxylation (CYP2C19), dextromethorphan O-demethylation (CYP2D6), and terfenadine hydroxylation (CYP3A4 […]
(§3) Five kinds of substrates, human liver microsomes, or a compound of the present invention in 50 mmol/L Hepes buffer was added to a 96-well plate at the composition as described above as a reaction solution. […] After the centrifugation at 3000 rpm for 15 minutes, resorufin (CYP1A2 metabolite) in the supernatant was quantified by a fluorescent plate reader, and hydroxytolbutamide (CYP2C9 metabolite), 4′-hydroxymephenyloin (CYP2C19 metabolite), dextrorphan (CYP2D6 metabolite), and terfenadine alcohol metabolite (CYP3A4 metabolite) in the supernatant were quantified by LC/MS/MS. […]

In series [6] the target is T4, CYP2C9 (Homo sapiens, UniProt P11712).
T4 construct: The commercially available pooled human liver microsomes were used; from tissue; host or cells: pooled human liver microsomes
The experiment in a line: CYP inhibition test, tolbutamide methyl-hydroxylation. It is filed as in vitro ADME. The note with it: pooled human liver microsomes, 100 μmol/L tolbutamide.
Excerpt: as §1, §2, §3

Series [7] has as its target T5, CYP2C19 (Homo sapiens, UniProt P33261).
T5 construct: The commercially available pooled human liver microsomes were used; from tissue; host or cells: pooled human liver microsomes
The experiment in a line: CYP inhibition test, mephenyloin 4'-hydroxylation. The class given is in vitro ADME. The note with it: pooled human liver microsomes, 50 μmol/L S-mephenyloin.
Excerpt: as §1, §2, §3

Series [8] addresses T6, CYP2D6 (Homo sapiens, UniProt P10635).
T6 construct: The commercially available pooled human liver microsomes were used; from tissue; host or cells: pooled human liver microsomes
The experiment in a line: CYP inhibition test, dextromethorphan O-demethylation. It is filed as in vitro ADME. The note with it: pooled human liver microsomes, 5 μmol/L dextromethorphan.
Excerpt: as §1, §2, §3

Series [9] concerns the target T7, CYP3A4 (Homo sapiens, UniProt P08684).
T7 construct: The commercially available pooled human liver microsomes were used; from tissue; host or cells: pooled human liver microsomes
The experiment in a line: CYP inhibition test, terfenadine hydroxylation. The class given is in vitro ADME. As to conditions: pooled human liver microsomes, 1 μmol/L terfenadine.
Excerpt: as §1, §2, §3

T2 sequence (P56817 46-501): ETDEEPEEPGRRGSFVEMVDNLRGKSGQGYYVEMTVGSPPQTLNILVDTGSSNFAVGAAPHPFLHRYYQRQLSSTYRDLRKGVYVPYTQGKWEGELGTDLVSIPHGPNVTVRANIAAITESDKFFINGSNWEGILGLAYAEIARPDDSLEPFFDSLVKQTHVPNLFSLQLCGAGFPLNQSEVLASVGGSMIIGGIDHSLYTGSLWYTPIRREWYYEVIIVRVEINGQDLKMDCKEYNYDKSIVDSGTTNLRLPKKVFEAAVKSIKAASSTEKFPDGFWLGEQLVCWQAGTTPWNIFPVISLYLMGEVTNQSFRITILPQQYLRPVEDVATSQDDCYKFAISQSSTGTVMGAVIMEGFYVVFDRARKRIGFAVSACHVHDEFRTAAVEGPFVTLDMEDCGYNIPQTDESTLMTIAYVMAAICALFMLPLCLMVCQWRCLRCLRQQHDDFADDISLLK
T7 sequence (P08684 whole entry): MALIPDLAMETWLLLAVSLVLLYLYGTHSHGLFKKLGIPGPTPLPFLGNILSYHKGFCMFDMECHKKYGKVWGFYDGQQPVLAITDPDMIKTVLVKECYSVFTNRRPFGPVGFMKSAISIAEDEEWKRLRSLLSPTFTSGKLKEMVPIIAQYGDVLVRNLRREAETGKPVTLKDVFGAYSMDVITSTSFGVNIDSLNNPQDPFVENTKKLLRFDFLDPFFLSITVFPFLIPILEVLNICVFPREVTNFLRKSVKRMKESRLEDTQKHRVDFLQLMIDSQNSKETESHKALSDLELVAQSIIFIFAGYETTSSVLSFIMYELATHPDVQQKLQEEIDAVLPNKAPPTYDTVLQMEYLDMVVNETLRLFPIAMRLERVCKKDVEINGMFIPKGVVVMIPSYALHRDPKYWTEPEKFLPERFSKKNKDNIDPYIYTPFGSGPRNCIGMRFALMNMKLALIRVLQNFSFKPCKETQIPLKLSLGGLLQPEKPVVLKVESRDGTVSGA
T1 sequence (P08684 whole entry): as above
T4 sequence (P11712 whole entry): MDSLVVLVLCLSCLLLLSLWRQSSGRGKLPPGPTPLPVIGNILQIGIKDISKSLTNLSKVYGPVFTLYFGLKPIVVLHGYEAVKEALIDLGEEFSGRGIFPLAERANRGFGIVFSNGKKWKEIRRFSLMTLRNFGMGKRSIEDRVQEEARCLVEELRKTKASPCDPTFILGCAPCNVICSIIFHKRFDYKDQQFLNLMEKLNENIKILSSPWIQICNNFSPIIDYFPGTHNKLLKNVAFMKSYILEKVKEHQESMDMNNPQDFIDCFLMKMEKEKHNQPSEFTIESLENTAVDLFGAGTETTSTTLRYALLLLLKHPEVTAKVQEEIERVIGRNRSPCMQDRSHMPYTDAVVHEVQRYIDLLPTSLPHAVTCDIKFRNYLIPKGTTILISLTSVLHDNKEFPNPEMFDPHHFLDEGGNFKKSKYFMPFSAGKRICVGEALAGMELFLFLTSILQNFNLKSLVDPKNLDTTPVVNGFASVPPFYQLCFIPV
T6 sequence (P10635 whole entry): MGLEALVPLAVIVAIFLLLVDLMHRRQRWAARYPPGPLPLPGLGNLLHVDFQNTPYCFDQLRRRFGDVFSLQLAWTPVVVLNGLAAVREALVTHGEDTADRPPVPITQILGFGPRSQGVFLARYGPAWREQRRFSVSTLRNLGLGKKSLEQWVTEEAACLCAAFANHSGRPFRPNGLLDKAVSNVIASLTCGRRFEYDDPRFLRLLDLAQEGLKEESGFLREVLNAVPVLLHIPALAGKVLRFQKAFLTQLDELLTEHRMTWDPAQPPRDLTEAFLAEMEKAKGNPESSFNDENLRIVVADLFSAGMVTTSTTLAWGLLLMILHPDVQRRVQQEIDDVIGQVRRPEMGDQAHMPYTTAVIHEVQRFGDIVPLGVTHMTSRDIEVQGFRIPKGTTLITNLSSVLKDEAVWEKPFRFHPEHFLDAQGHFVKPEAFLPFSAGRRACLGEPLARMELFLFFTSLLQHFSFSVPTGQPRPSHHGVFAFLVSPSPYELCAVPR
T5 sequence (P33261 whole entry): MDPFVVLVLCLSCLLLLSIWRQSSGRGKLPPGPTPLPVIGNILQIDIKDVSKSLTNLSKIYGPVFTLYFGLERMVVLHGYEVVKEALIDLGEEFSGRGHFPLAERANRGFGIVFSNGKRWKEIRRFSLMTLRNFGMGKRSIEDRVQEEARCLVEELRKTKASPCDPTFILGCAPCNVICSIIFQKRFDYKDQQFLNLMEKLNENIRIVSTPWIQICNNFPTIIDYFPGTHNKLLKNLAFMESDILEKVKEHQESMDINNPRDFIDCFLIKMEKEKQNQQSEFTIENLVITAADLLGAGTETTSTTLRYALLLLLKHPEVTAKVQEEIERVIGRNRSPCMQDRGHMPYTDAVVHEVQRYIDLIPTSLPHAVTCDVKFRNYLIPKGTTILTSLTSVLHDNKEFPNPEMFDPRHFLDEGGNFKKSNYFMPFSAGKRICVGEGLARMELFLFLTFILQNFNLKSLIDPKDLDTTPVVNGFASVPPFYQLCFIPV

Regarding `CC1=C[C@@](C)(c2cc(NC(=O)c3cnc(OCF)cn3)ccc2F)N=C(N)O1` [Compound I-1], in [1], the “CYP3A4 MBI: difference of IC50 without and with preincubation” value is reported as “(−) (the difference is 3 μM or less)”.

Turning to `C[C@@]1(c2cc(NC(=O)c3ccc(C#N)cn3)ccc2F)C=C(C(F)F)OC(N)=N1` [Compound I-2], the pIC50 in series [2] was 8.28.

For the molecule `C[C@@]1(c2cc(NC(=O)c3ccc(C#N)cn3)ccc2F)C=C(CO)OC(N)=N1` [Compound I-4], the pIC50 in series [2] is 7.97.

One may read the solubility as how much of the substance goes into solution per volume. Take `CC1=C[C@@](C)(c2cc(NC(=O)c3ccc(C(F)F)cn3)ccc2F)N=C(N)O1` [Compound I-5]: in series [3], the solubility at 4 h was more than 40 µM.

Turning to `C[C@@]1(c2cc(NC(=O)c3cnc(OC(F)F)cn3)ccc2F)C=COC(N)=N1` [Compound I-8], the pIC50 in [2] is 7.99. Also, the “remaining amount of the compound after the reaction” value in [4] was found to be 99%.

Consider `C[C@@]1(c2cc(NC(=O)c3ncc(C#N)cc3F)ccc2F)C=COC(N)=N1` [Compound I-9], for which the pIC50 in series [5], in series [6], in series [7], in series [8] and in [9] was less than 4.70 each time.

Take `CC1=C[C@@](C)(c2cc(NC(=O)c3ccc(C#N)cn3)ccc2Cl)N=C(N)O1` [Compound I-11]: in series [2], the pIC50 is 7.19.
